Values quoted from earlier work as cited in patent US9585955B2 (priority 2005, dated 2017).

Settings: 20° C. and 2 atm pressure

[N-]=[N+]=O [Nitrous oxide]
volume of water in which one liter of the gas dissolves: 1.5 L
